Test system: VA-ES-BJ tumor spheroid viability
Test: Anticancer human tumor VA-ES-BJ cell line growth inhibition;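 further: spheroids exposed to compounds for seven days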;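 on viability, T/C: percent of DMSO vehicle control viability so 100% = untreated growth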
Settings: spheroids with HUVEC and MSC; for IC50: curve of first compound; for viability, T/C: stronger effect = lower value
Procedure, shortened: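 Complex spheroids of malignant cells with endothelial cells and mesenchymal stem cells; agents alone or combined, from near clinical Cmax (or 10 microM if unknown) down in half-log steps, 0.25% DMSO final.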

[1] = second compound 1 µM, first compound 0.0316 µM
[2] = second compound 1 µM, first compound 0.1 µM
[3] = second compound 1 µM, first compound 0.316 µM
[4] = second compound 1 µM, first compound 1 µM
[5] = second compound 1 µM, first compound 3.16 µM
[6] = second compound 1 µM, first compound 10 µM
[7] = second compound 3.16 µM, first compound 0.0316 µM
[8] = second compound 3.16 µM, first compound 0.1 µM
[9] = second compound 3.16 µM, first compound 0.316 µM
[10] = second compound 3.16 µM, first compound 1 µM
[11] = second compound 3.16 µM, first compound 3.16 µM
[12] = second compound 3.16 µM, first compound 10 µM
[13] = second compound 10 µM, first compound 0.0316 µM
[14] = second compound 10 µM, first compound 0.1 µM
[15] = second compound 10 µM, first compound 0.316 µM
[16] = second compound 10 µM, first compound 1 µM
[17] = second compound 10 µM, first compound 3.16 µM
[18] = second compound 10 µM, first compound 10 µM
[19] = second compound 31.6 µM, first compound 0.0316 µM
[20] = second compound 31.6 µM, first compound 0.1 µM
[21] = second compound 31.6 µM, first compound 0.316 µM
[22] = second compound 31.6 µM, first compound 1 µM
[23] = second compound 31.6 µM, first compound 3.16 µM
[24] = second compound 31.6 µM, first compound 10 µM
[25] = second compound 100 µM, first compound 0.0316 µM
[26] = second compound 100 µM, first compound 0.1 µM
[27] = second compound 100 µM, first compound 0.316 µM
[28] = second compound 100 µM, first compound 1 µM
[29] = second compound 100 µM, first compound 3.16 µM
[30] = second compound 100 µM, first compound 10 µM

With `CC1COCCN1c1cc(-c2ccnn2C)c2ccnc(-c3ccn[nH]3)c2n1` (stereo not given) + Cn1nnc2c(C(N)=O)ncn2c1=O the IC50 (second compound 1 µM) was 0.118 µM, the IC50 (second compound 3.16 µM) was 0.127 µM and the IC50 (second compound 10 µM) was 0.111 µM. It also gave an IC50 (second compound 31.6 µM) of 0.0841 µM, an IC50 (second compound 100 µM) of 0.0561 µM and a viability, T/C [1] of 94.7%. The viability, T/C [2] was 52.9%, the viability, T/C [3] was 29% and the viability, T/C [4] was 8.26%. For the same compound, the viability, T/C [5] was 6.9%, the viability, T/C [6] was 6.16% and the viability, T/C [7] was 85.2%. It also gave a viability, T/C [8] of 54.7%, a viability, T/C [9] of 30.1% and a viability, T/C [10] of 9.03%. The viability, T/C [11] was 6.96%, the viability, T/C [12] was 5.94% and the viability, T/C [13] was 87.7%. It also gave a viability, T/C [14] of 51.8%, a viability, T/C [15] of 26.4% and a viability, T/C [16] of 8.47%. The viability, T/C [17] was 6.49%, the viability, T/C [18] was 6.12% and the viability, T/C [19] was 81.3%. The viability, T/C [20] was 44%, the viability, T/C [21] was 23.2% and the viability, T/C [22] was 9.91%. The viability, T/C [23] was 6.7%, the viability, T/C [24] was 5.99% and the viability, T/C [25] was 62.7%. It also gave a viability, T/C [26] of 37.2%, a viability, T/C [27] of 18.4% and a viability, T/C [28] of 8.87%. For the same compound, the viability, T/C [29] was 6.58% and the viability, T/C [30] was 5.6%.
`COc1cc(C)[nH]c(=O)c1CN1CCc2c(Cl)cc(C(OC)C3COC3)c(Cl)c2C1=O` (stereo not given) + Cn1nnc2c(C(N)=O)ncn2c1=O was tested, and the IC50 (second compound 1 µM) was 9.57 µM, the IC50 (second compound 3.16 µM) was > 10 µM and the IC50 (second compound 10 µM) was 3.26 µM. For the same compound, the IC50 (second compound 31.6 µM) was 3.36 µM, the IC50 (second compound 100 µM) was 2.22 µM and the viability, T/C [1] was 94%. The viability, T/C [2] was 88.8%, the viability, T/C [3] was 72.2% and the viability, T/C [4] was 61.4%. For the same compound, the viability, T/C [5] was 54%, the viability, T/C [6] was 49% and the viability, T/C [7] was 97.6%. It also gave a viability, T/C [8] of 85.8%, a viability, T/C [9] of 70.8% and a viability, T/C [10] of 60.3%. For the same compound, the viability, T/C [11] was 56.1%, the viability, T/C [12] was 49.5% and the viability, T/C [13] was 89%. For the same compound, the viability, T/C [14] was 87.2%, the viability, T/C [15] was 71.6% and the viability, T/C [16] was 58.4%. For the same compound, the viability, T/C [17] was 52.4%, the viability, T/C [18] was 45.2% and the viability, T/C [19] was 95.5%. It also gave a viability, T/C [20] of 85.4%, a viability, T/C [21] of 68.9% and a viability, T/C [22] of 56.8%. The viability, T/C [23] was 51.9%, the viability, T/C [24] was 46% and the viability, T/C [25] was 106%. It also gave a viability, T/C [26] of 90.2%, a viability, T/C [27] of 75.1% and a viability, T/C [28] of 53.8%. It also gave a viability, T/C [29] of 48.7% and a viability, T/C [30] of 42.7%.
With `Cc1cc(C)c(CNC(=O)c2cc(-c3ccc(CN4CCOCC4)cc3)cc3c2cnn3C2CCCC2)c(=O)[nH]1` + Cn1nnc2c(C(N)=O)ncn2c1=O the IC50 (second compound 1 µM) was > 10 µM, the IC50 (second compound 3.16 µM) was > 10 µM and the IC50 (second compound 10 µM) was > 10 µM. For the same compound, the IC50 (second compound 31.6 µM) was > 10 µM, the IC50 (second compound 100 µM) was > 10 µM and the viability, T/C [1] was 114%. For the same compound, the viability, T/C [2] was 97.9%, the viability, T/C [3] was 101% and the viability, T/C [4] was 113%. The viability, T/C [5] was 117%, the viability, T/C [6] was 104% and the viability, T/C [7] was 99.2%. For the same compound, the viability, T/C [8] was 102%, the viability, T/C [9] was 92.7% and the viability, T/C [10] was 97.6%. For the same compound, the viability, T/C [11] was 110%, the viability, T/C [12] was 101% and the viability, T/C [13] was 102%. It also gave a viability, T/C [14] of 100%, a viability, T/C [15] of 101% and a viability, T/C [16] of 109%. It also gave a viability, T/C [17] of 108%, a viability, T/C [18] of 104% and a viability, T/C [19] of 91.2%. The viability, T/C [20] was 96.8%, the viability, T/C [21] was 94.8% and the viability, T/C [22] was 110%. The viability, T/C [23] was 104%, the viability, T/C [24] was 96% and the viability, T/C [25] was 103%. For the same compound, the viability, T/C [26] was 108%, the viability, T/C [27] was 92.1% and the viability, T/C [28] was 102%. The viability, T/C [29] was 122% and the viability, T/C [30] was 109%.
In the case of `[2H]c1nc(C)nc([2H])c1-c1cc(NC[C@@H](C)c2cccc3c(C(=O)NC)ccnc23)ncn1` + Cn1nnc2c(C(N)=O)ncn2c1=O, the IC50 (second compound 1 µM) is reported as > 10 µM, the IC50 (second compound 3.16 µM) is reported as > 10 µM and the IC50 (second compound 10 µM) is reported as > 10 µM. The IC50 (second compound 31.6 µM) was > 10 µM, the IC50 (second compound 100 µM) was > 10 µM and the viability, T/C [1] was 108%. For the same compound, the viability, T/C [2] was 105%, the viability, T/C [3] was 106% and the viability, T/C [4] was 94.7%. It also gave a viability, T/C [5] of 95.8%, a viability, T/C [6] of 92.5% and a viability, T/C [7] of 111%. For the same compound, the viability, T/C [8] was 90.1%, the viability, T/C [9] was 90.2% and the viability, T/C [10] was 91.1%. For the same compound, the viability, T/C [11] was 98.3%, the viability, T/C [12] was 97% and the viability, T/C [13] was 111%. It also gave a viability, T/C [14] of 94.6%, a viability, T/C [15] of 97.5% and a viability, T/C [16] of 101%. The viability, T/C [17] was 94.1%, the viability, T/C [18] was 95.6% and the viability, T/C [19] was 114%. For the same compound, the viability, T/C [20] was 103%, the viability, T/C [21] was 105% and the viability, T/C [22] was 99.2%. It also gave a viability, T/C [23] of 89.4%, a viability, T/C [24] of 85.6% and a viability, T/C [25] of 103%. For the same compound, the viability, T/C [26] was 102%, the viability, T/C [27] was 107% and the viability, T/C [28] was 104%. For the same compound, the viability, T/C [29] was 99.9% and the viability, T/C [30] was 96%.
